In PMC7313537 (PLoS ONE, 2020):

Assays:
Assay in all cases: Broader kinase panel (PerkinElmer)
Type in all cases: biochemical
Details in all cases: 100 nM; read-out: Average Percent Inhibition
PASK = biological target: T1, PASK (Homo sapiens, UniProt Q96RG2)
T1 construct: purchased In-house HTRF panel (56 kinases) and PerkinElmer (161-kinase panel)
From the text: (§1) […]. […] […].

TSSK2 = biological target: T2, TSSK2 (Homo sapiens, UniProt Q96PF2)
T2 construct: purchased In-house HTRF panel (56 kinases) and PerkinElmer (161-kinase panel)
From the text: as §1

RSK4 = biological target: T3, RSK4 (Homo sapiens, UniProt Q9UK32)
T3 construct: purchased In-house HTRF panel (56 kinases) and PerkinElmer (161-kinase panel)
From the text: as §1

CDK1/Cycline B1 = biological target: T4, CDK1/Cycline B1 (Homo sapiens, UniProt P06493)
T4 construct: purchased In-house HTRF panel (56 kinases) and PerkinElmer (161-kinase panel)
From the text: as §1

DYRK1a = biological target: T5, DYRK1a (Homo sapiens, UniProt Q13627)
T5 construct: purchased In-house HTRF panel (56 kinases) and PerkinElmer (161-kinase panel)
From the text: as §1

ZIPK (DAPK3) = biological target: T6, ZIPK (DAPK3) (Homo sapiens, UniProt O43293)
T6 construct: purchased In-house HTRF panel (56 kinases) and PerkinElmer (161-kinase panel)
From the text: as §1

ALK = biological target: T7, ALK (Homo sapiens, UniProt Q9UM73)
T7 construct: purchased In-house HTRF panel (56 kinases) and PerkinElmer (161-kinase panel)
From the text: as §1

KDR = KDR (Homo sapiens, UniProt P35968)
From the text: as §1

FLT3 = FLT3 (Homo sapiens, UniProt P36888)
From the text: as §1

NEK2 = biological target: T8, NEK2 (Homo sapiens, UniProt P51955)
T8 construct: purchased In-house HTRF panel (56 kinases) and PerkinElmer (161-kinase panel)
From the text: as §1

IKK-beta = biological target: T9, IKK-beta (Homo sapiens, UniProt O14920)
T9 construct: purchased In-house HTRF panel (56 kinases) and PerkinElmer (161-kinase panel)
From the text: as §1

Hck = biological target: T10, Hck (Homo sapiens, UniProt P08631)
T10 construct: purchased In-house HTRF panel (56 kinases) and PerkinElmer (161-kinase panel)
From the text: as §1

p38a = biological target: T11, p38a (Homo sapiens, UniProt Q16539)
T11 construct: purchased In-house HTRF panel (56 kinases) and PerkinElmer (161-kinase panel)
From the text: as §1

KIT = biological target: T12, KIT (Homo sapiens, UniProt P10721)
T12 construct: purchased In-house HTRF panel (56 kinases) and PerkinElmer (161-kinase panel)
From the text: as §1

ABL1(G250E) = biological target: T13, ABL1(G250E) (Homo sapiens, UniProt P00519, G250E)
T13 construct: purchased In-house HTRF panel (56 kinases) and PerkinElmer (161-kinase panel)
From the text: as §1

PIM1 = biological target: T14, PIM1 (Homo sapiens, UniProt P11309)
T14 construct: purchased In-house HTRF panel (56 kinases) and PerkinElmer (161-kinase panel)
From the text: as §1

FRK = biological target: T15, FRK (Homo sapiens, UniProt P42685)
T15 construct: purchased In-house HTRF panel (56 kinases) and PerkinElmer (161-kinase panel)
From the text: as §1

Abl (H396P) = biological target: T16, Abl (H396P) (Homo sapiens, UniProt P00519, H396P)
T16 construct: purchased In-house HTRF panel (56 kinases) and PerkinElmer (161-kinase panel)
From the text: as §1

TYRO3 = biological target: T17, TYRO3 (Homo sapiens, UniProt Q06418)
T17 construct: purchased In-house HTRF panel (56 kinases) and PerkinElmer (161-kinase panel)
From the text: as §1

EPHA5 = biological target: T18, EPHA5 (Homo sapiens, UniProt P54756)
T18 construct: purchased In-house HTRF panel (56 kinases) and PerkinElmer (161-kinase panel)
From the text: as §1

IRAK4 = biological target: T19, IRAK4 (Homo sapiens, UniProt Q9NWZ3)
T19 construct: purchased In-house HTRF panel (56 kinases) and PerkinElmer (161-kinase panel)
From the text: as §1

CK1g3 (CSNK1G3) = biological target: T20, CK1g3 (CSNK1G3) (Homo sapiens, UniProt Q9Y6M4)
T20 construct: purchased In-house HTRF panel (56 kinases) and PerkinElmer (161-kinase panel)
From the text: as §1

Yes = biological target: T21, Yes (Homo sapiens, UniProt P07947)
T21 construct: purchased In-house HTRF panel (56 kinases) and PerkinElmer (161-kinase panel)
From the text: as §1

MST2 = biological target: T22, MST2 (Homo sapiens, UniProt Q13188)
T22 construct: purchased In-house HTRF panel (56 kinases) and PerkinElmer (161-kinase panel)
From the text: as §1

PKC-gamma = biological target: T23, PKC-gamma (Homo sapiens, UniProt P05129)
T23 construct: purchased In-house HTRF panel (56 kinases) and PerkinElmer (161-kinase panel)
From the text: as §1

PRKCI (PKC-iota) = biological target: T24, PRKCI (PKC-iota) (Homo sapiens, UniProt P41743)
T24 construct: purchased In-house HTRF panel (56 kinases) and PerkinElmer (161-kinase panel)
From the text: as §1

CamK1d = biological target: T25, CamK1d (Homo sapiens, UniProt Q8IU85)
T25 construct: purchased In-house HTRF panel (56 kinases) and PerkinElmer (161-kinase panel)
From the text: as §1

HER4 = biological target: T26, HER4 (Homo sapiens, UniProt Q15303)
T26 construct: purchased In-house HTRF panel (56 kinases) and PerkinElmer (161-kinase panel)
From the text: as §1

Erk1 = biological target: T27, Erk1 (Homo sapiens, UniProt P27361)
T27 construct: purchased In-house HTRF panel (56 kinases) and PerkinElmer (161-kinase panel)
From the text: as §1

c-TAK1 = biological target: T28, c-TAK1 (Homo sapiens, UniProt P27448)
T28 construct: purchased In-house HTRF panel (56 kinases) and PerkinElmer (161-kinase panel)
From the text: as §1

GCK = biological target: T29, GCK (Homo sapiens, UniProt Q12851)
T29 construct: purchased In-house HTRF panel (56 kinases) and PerkinElmer (161-kinase panel)
From the text: as §1

ABL1(Y253F) = biological target: T30, ABL1(Y253F) (Homo sapiens, UniProt P00519, Y253F)
T30 construct: purchased In-house HTRF panel (56 kinases) and PerkinElmer (161-kinase panel)
From the text: as §1

p38-beta 2 = biological target: T31, p38-beta 2 (Homo sapiens, UniProt Q15759)
T31 construct: purchased In-house HTRF panel (56 kinases) and PerkinElmer (161-kinase panel)
From the text: as §1

Erk2 = biological target: T32, Erk2 (Homo sapiens, UniProt P28482)
T32 construct: purchased In-house HTRF panel (56 kinases) and PerkinElmer (161-kinase panel)
From the text: as §1

CHK1 = biological target: T33, CHK1 (Homo sapiens, UniProt O14757)
T33 construct: purchased In-house HTRF panel (56 kinases) and PerkinElmer (161-kinase panel)
From the text: as §1

BRSK1 = biological target: T34, BRSK1 (Homo sapiens, UniProt Q8TDC3)
T34 construct: purchased In-house HTRF panel (56 kinases) and PerkinElmer (161-kinase panel)
From the text: as §1

PAK4 = PAK4 (Homo sapiens, UniProt O96013)
From the text: as §1

PKCb2 = biological target: T35, PKCb2 (Homo sapiens, UniProt P05771)
T35 construct: purchased In-house HTRF panel (56 kinases) and PerkinElmer (161-kinase panel)
From the text: as §1

BLK = biological target: T36, BLK (Homo sapiens, UniProt P51451)
T36 construct: purchased In-house HTRF panel (56 kinases) and PerkinElmer (161-kinase panel)
From the text: as §1

PAK2 = biological target: T37, PAK2 (Homo sapiens, UniProt Q13177)
T37 construct: purchased In-house HTRF panel (56 kinases) and PerkinElmer (161-kinase panel)
From the text: as §1

CHK2 = biological target: T38, CHK2 (Homo sapiens, UniProt O96017)
T38 construct: purchased In-house HTRF panel (56 kinases) and PerkinElmer (161-kinase panel)
From the text: as §1

c-Raf = biological target: T39, c-Raf (Homo sapiens, UniProt P04049)
T39 construct: purchased In-house HTRF panel (56 kinases) and PerkinElmer (161-kinase panel)
From the text: as §1

CDK3 = biological target: T40, CDK3 (Homo sapiens, UniProt Q00526)
T40 construct: purchased In-house HTRF panel (56 kinases) and PerkinElmer (161-kinase panel)
From the text: as §1

T31 sequence (Q15759 whole entry): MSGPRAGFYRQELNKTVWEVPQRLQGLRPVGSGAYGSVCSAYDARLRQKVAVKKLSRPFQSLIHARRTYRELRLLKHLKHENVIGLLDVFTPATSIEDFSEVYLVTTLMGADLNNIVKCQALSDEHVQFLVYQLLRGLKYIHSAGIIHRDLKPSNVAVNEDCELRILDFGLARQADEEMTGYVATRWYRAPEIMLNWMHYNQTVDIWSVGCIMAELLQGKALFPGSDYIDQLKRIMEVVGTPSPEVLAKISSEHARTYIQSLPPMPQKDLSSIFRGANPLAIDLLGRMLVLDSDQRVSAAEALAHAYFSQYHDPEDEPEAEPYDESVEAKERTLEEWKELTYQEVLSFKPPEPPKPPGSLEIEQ
T38 sequence (O96017 whole entry): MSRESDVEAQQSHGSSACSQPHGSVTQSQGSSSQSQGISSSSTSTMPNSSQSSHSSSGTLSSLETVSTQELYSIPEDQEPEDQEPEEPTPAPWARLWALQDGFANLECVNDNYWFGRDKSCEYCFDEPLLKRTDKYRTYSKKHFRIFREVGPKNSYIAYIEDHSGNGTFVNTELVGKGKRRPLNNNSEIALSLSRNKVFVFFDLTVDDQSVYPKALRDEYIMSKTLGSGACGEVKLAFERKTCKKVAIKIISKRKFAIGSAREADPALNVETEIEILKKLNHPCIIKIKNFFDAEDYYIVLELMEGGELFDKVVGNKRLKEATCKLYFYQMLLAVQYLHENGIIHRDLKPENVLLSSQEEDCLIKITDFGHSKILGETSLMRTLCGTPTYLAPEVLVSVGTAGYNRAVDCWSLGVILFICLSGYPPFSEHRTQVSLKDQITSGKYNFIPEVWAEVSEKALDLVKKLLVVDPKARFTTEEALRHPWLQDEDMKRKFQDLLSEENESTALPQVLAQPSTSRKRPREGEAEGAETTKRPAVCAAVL
T37 sequence (Q13177 whole entry): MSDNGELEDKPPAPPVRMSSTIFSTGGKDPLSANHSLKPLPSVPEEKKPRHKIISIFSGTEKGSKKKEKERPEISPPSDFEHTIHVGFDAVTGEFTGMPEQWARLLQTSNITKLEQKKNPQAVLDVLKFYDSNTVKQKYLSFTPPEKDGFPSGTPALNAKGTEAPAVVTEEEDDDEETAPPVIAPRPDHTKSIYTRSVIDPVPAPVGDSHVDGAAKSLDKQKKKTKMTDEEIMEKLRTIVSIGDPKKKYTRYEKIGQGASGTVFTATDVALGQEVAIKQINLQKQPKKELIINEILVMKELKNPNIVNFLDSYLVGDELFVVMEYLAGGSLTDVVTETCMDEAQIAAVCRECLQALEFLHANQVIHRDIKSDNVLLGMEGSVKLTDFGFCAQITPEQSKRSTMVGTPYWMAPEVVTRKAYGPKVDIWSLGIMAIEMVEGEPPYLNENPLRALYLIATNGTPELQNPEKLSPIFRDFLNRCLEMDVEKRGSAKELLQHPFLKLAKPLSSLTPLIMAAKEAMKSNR
T25 sequence (Q8IU85 whole entry): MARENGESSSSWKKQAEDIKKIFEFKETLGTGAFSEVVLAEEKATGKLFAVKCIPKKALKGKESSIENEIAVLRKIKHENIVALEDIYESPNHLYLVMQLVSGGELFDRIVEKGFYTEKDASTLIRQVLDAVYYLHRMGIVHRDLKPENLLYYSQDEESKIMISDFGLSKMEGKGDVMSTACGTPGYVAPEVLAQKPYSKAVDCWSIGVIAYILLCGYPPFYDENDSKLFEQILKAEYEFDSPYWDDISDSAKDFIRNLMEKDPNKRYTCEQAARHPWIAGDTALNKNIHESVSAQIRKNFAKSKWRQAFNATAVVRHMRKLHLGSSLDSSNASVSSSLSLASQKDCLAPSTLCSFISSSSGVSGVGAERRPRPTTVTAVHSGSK
T33 sequence (O14757 whole entry): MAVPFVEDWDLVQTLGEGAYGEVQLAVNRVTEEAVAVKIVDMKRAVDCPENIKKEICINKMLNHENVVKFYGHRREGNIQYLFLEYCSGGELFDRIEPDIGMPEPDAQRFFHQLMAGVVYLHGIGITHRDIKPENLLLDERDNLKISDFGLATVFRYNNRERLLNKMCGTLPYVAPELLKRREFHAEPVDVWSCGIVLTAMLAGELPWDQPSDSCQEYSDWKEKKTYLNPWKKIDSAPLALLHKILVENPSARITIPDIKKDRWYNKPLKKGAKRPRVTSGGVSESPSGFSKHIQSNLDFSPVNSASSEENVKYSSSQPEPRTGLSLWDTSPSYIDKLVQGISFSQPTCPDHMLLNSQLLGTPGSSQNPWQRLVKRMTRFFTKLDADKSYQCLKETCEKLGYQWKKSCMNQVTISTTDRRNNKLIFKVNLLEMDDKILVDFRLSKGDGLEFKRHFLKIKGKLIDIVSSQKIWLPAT
T11 sequence (Q16539 whole entry): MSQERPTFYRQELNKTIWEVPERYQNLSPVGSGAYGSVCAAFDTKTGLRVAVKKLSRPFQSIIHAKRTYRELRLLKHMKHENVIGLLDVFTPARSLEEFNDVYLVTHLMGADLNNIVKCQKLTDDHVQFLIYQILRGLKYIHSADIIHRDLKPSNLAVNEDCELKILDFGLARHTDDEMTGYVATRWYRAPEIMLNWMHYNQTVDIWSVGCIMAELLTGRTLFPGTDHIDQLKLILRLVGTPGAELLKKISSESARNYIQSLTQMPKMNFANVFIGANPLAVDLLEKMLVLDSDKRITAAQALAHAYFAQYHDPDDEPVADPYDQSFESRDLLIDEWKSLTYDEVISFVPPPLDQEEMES
T24 sequence (P41743 whole entry): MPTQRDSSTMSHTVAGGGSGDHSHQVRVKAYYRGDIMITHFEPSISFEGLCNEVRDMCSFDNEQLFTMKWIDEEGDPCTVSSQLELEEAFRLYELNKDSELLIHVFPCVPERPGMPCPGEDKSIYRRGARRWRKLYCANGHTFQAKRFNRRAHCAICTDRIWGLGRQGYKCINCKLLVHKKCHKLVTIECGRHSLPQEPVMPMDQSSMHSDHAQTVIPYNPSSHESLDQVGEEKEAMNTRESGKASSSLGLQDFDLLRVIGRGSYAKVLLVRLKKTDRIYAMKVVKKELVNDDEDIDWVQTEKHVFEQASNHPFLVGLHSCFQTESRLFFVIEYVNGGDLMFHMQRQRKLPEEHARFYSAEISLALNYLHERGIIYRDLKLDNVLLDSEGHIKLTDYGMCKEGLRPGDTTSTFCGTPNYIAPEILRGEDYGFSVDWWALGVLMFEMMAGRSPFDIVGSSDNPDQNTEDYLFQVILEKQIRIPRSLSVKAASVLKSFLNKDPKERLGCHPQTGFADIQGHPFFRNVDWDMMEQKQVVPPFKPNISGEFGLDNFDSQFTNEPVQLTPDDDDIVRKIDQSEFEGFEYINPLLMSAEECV
T18 sequence (P54756 25-1037): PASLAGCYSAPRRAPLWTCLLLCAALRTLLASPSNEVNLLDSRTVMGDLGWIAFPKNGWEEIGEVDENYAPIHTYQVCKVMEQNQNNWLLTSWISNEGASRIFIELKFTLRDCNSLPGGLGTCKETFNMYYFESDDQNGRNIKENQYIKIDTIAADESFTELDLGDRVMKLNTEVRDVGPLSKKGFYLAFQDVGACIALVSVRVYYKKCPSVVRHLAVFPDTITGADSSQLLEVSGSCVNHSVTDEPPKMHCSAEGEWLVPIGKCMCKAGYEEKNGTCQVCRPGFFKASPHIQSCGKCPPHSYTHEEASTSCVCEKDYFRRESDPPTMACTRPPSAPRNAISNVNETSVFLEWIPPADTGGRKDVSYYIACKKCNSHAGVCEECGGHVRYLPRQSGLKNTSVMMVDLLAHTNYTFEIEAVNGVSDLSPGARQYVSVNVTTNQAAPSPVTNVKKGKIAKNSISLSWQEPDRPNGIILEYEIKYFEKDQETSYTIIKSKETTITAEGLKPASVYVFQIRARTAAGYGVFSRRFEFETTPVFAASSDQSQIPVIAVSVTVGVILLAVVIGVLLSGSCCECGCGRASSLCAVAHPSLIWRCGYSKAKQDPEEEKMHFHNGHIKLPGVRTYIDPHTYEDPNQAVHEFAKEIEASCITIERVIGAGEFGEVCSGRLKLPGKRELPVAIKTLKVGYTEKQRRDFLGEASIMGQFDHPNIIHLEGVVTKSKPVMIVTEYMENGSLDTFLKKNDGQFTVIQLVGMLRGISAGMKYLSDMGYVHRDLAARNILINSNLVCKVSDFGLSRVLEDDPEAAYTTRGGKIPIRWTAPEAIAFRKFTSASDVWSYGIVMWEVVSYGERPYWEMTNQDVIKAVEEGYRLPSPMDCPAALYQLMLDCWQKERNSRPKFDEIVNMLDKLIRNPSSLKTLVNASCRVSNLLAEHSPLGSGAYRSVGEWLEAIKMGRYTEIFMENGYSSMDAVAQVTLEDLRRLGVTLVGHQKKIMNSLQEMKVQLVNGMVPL
T3 sequence (Q9UK32 whole entry): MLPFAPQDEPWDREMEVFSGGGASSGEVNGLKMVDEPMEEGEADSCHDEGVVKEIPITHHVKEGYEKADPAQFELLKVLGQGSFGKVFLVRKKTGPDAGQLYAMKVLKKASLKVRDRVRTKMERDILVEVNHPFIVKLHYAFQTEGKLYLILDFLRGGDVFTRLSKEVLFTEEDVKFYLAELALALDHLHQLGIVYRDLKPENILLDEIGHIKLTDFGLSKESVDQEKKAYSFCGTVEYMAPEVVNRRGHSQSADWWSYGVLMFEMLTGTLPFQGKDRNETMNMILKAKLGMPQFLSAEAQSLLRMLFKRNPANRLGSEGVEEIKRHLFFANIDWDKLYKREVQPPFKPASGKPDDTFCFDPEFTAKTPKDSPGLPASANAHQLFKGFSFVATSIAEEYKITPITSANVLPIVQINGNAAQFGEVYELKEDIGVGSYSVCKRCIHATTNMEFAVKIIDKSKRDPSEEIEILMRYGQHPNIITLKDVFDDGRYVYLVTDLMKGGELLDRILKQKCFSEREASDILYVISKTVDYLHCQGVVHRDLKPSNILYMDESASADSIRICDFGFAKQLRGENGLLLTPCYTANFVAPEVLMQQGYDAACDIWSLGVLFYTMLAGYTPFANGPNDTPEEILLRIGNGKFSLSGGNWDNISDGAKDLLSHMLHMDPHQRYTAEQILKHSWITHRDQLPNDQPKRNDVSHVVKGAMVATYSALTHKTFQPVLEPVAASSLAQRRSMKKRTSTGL

CCN1C(=O)N(c2c(F)c(OC)cc(OC)c2F)Cc2cnc3[nH]c(CN4CCOCC4)cc3c21 [INCB054828, pemigatinib]
inhibition at 0.1 µM (PASK): -7%
inhibition at 0.1 µM (TSSK2): -3%
inhibition at 0.1 µM (RSK4): -1%
inhibition at 0.1 µM (CDK1/Cycline B1): 5%
inhibition at 0.1 µM (DYRK1a): -2%
inhibition at 0.1 µM (ZIPK (DAPK3)): 7%
inhibition at 0.1 µM (ALK): -1%
inhibition at 0.1 µM (KDR): 45%
inhibition at 0.1 µM (FLT3): 0%
inhibition at 0.1 µM (NEK2): -4%
inhibition at 0.1 µM (IKK-beta): 4%
inhibition at 0.1 µM (Hck): -3%
inhibition at 0.1 µM (p38a): 1%
inhibition at 0.1 µM (KIT): 4%
inhibition at 0.1 µM (ABL1(G250E)): 1%
inhibition at 0.1 µM (PIM1): -6%
inhibition at 0.1 µM (FRK): 0%
inhibition at 0.1 µM (Abl (H396P)): -1%
inhibition at 0.1 µM (TYRO3): 1%
inhibition at 0.1 µM (EPHA5): 2%
inhibition at 0.1 µM (IRAK4): 0%
inhibition at 0.1 µM (CK1g3 (CSNK1G3)): 0%
inhibition at 0.1 µM (Yes): 3%
inhibition at 0.1 µM (MST2): 3%
inhibition at 0.1 µM (PKC-gamma): 7%
inhibition at 0.1 µM (PRKCI (PKC-iota)): 3%
inhibition at 0.1 µM (CamK1d): 14%
inhibition at 0.1 µM (HER4): -15%
inhibition at 0.1 µM (Erk1): 1%
inhibition at 0.1 µM (c-TAK1): 2%
inhibition at 0.1 µM (GCK): 1%
inhibition at 0.1 µM (ABL1(Y253F)): 2%
inhibition at 0.1 µM (p38-beta 2): 2%
inhibition at 0.1 µM (Erk2): 3%
inhibition at 0.1 µM (CHK1): 0%
inhibition at 0.1 µM (BRSK1): -4%
inhibition at 0.1 µM (PAK4): 5%
inhibition at 0.1 µM (PKCb2): 0%
inhibition at 0.1 µM (BLK): -10%
inhibition at 0.1 µM (PAK2): 0%
inhibition at 0.1 µM (CHK2): 4%
inhibition at 0.1 µM (c-Raf): 3%
inhibition at 0.1 µM (CDK3): 11%
